From patent US20040034084A1, “Methods for using JNK inhibitors for treating or preventing disease-related wasting” (Celgene Corporation, priority 2002, published 2004) come the findings set out here.

A word on the IC50: it is the concentration that gives 50% inhibition.

Assay [1] deals with T1, MEK6 (Homo sapiens, UniProt P52564).
T1 sequence (P52564 1-334): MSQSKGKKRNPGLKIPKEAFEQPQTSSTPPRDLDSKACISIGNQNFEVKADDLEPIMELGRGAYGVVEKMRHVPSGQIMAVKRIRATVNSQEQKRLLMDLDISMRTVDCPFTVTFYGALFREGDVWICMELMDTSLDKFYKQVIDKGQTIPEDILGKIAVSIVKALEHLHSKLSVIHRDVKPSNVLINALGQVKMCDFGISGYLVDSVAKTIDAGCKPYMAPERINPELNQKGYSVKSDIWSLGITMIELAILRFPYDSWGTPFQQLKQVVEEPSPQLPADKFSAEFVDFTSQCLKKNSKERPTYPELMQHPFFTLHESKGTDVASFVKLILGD
In words: Selectivity for JNK: protein kinase panel, MEK6. In kind it is biochemical. The method, then: (§1) 5-Amino-anthra(9,1-cd)isothiazol-6-one was also assayed for its inhibitory activity against several protein kinases, listed below, using techniques known to those skilled in art (See, e.g., Protein Phosphorylation, Sefton & Hunter, Eds., Academic Press, pp. 97-367, 1998).

Assay [2] deals with IL-2 production in Jurkat T cells (clone E6-1). In words: Jurkat T-cell IL-2 production assay. The format is cell-based. The conditions noted are these: Homo sapiens, 10 h, read-out: IC50, IL-2 production reduced to 50% of control. The method, then: Jurkat T cells (clone E6-1) were purchased from the American Type Culture Collection of Manassas, Va. and maintained in growth media consisting of RPMI 1640 medium containing 2 mM L-glutamine (commercially available from Mediatech Inc. of Hemdon, Va.), with 10% fetal bovine serum (commercially available from Hyclone Laboratories Inc. of Omaha, Nebr.) and penicillin/streptomycin. All cells were cultured at 37° C. in 95% air and 5% CO2. Cells were plated at a density of 0.2×10^6 cells per well in 200 μL of media. Compound stock (20 mM) was diluted in growth media and added to each well as a 10× concentrated solution in a volume of 25 μL, mixed, and allowed to pre-incubate with cells for 30 minutes. The compound vehicle (dimethylsulfoxide) was maintained at a final concentration of 0.5% in all samples. After 30 minutes the cells were activated with PMA (phorbol myristate acetate, final concentration 50 ng/mL) and PHA (phytohemagglutinin, final concentration 2 μg/mL). PMA and PHA were added as a 10× concentrated solution made up in growth media and added in a volume of 25 μL per well. Cell plates were cultured for 10 hours. Cells were pelleted by centrifugation and the media removed and stored at −20° C. Media aliquots are analyzed by sandwich ELISA for the presence of IL-2 as per the manufacturers instructions (Endogen Inc. of Woburn, Mass.). […]

In assay [3] the target is T2, IKK2 (Homo sapiens, UniProt O14920).
T2 sequence (O14920 1-756): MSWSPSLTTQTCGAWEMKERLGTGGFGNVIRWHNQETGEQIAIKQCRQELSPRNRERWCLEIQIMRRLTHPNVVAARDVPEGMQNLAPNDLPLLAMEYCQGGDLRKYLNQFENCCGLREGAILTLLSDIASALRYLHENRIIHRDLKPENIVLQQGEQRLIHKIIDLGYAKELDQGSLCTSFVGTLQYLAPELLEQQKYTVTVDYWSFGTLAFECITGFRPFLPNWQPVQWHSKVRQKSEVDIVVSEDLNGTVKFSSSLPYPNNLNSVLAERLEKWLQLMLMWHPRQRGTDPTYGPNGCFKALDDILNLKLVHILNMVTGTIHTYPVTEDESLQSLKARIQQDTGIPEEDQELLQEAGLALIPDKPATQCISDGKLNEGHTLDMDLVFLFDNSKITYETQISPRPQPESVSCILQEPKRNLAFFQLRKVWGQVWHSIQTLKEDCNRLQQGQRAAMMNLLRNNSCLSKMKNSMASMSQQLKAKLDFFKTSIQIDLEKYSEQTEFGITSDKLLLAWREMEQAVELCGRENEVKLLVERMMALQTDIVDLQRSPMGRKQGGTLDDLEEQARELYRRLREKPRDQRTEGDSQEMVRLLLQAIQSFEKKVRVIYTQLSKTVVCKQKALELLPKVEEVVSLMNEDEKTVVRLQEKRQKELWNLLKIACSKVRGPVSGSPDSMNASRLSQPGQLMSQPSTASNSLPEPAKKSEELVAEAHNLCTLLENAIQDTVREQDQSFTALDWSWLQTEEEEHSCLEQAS
In words: Selectivity for JNK: protein kinase panel, IKK2. The format is biochemical. As for the experimental part:
as §1

Assay [4] deals with p38-2 (Homo sapiens, UniProt Q15759). As to the kind of experiment: Selectivity for JNK: protein kinase panel, p38-2. The format is biochemical. The method, then:
as §1

Assay [5] addresses T3, LKK1 (Homo sapiens, UniProt O15111).
T3 sequence (O15111 1-745): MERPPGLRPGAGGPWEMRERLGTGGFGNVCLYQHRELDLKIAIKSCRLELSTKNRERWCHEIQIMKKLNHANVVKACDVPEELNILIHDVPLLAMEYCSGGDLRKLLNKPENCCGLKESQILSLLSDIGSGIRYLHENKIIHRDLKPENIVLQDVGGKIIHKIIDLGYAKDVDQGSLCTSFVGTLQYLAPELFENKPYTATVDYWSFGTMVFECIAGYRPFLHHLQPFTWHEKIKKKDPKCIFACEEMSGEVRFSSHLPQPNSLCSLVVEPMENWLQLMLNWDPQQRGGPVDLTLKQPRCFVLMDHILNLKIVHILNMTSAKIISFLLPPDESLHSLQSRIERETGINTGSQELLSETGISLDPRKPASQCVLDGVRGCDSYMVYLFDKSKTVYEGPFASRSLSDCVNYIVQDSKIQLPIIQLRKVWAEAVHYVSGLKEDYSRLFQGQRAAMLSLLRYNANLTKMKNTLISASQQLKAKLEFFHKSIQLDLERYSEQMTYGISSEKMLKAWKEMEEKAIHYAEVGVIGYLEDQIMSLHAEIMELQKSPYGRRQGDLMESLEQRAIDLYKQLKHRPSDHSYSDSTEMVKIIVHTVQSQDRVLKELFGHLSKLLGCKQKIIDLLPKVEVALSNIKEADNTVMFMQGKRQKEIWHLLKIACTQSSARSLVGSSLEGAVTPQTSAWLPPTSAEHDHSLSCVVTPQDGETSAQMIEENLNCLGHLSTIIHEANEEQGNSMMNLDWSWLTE
As to the kind of experiment: Selectivity for JNK: protein kinase panel, LKK1. In kind it is biochemical. The method, then: as §1

Some results are limits rather than exact numbers.

Sequence of p38-2 (Q15759 whole entry, species assumed): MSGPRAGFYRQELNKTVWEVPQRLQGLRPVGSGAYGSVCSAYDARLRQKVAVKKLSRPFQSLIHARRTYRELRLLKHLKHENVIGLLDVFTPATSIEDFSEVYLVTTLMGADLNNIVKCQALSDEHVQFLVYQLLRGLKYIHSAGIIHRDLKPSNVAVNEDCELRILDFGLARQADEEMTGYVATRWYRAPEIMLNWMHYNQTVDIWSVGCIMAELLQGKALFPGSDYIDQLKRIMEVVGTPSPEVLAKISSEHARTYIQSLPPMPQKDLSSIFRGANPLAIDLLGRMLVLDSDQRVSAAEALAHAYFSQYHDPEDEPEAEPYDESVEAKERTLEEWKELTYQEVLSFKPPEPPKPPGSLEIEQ

For the compound `Nc1ccc2snc3c2c1C(=O)c1ccccc1-3` [5-amino-anthra(9,1-cd)isothiazol-6-one], the IC50 in assay [1] was more than 30 µM; in assay [2] it was 30 µM; in assay [3], more than 30 µM; in assay [4], more than 30 µM; in assay [5], more than 30 µM.
